Experimental data from patent US6355799B1, “Substituted benzene compounds, process for their preparation, and herbicidal and defoliant compositions containing them” (ISK Americas Incorporated, priority 1997, dated 2002).

Key:
Format in all cases: in vivo
[1] = tested on: redroot pigweed (Amaranthus retroflexus, AMARE); experiment: Pre-emerge test, greenhouse herbicide activity screening; conditions: pre-emerge, rated 14 days after application, 0 = no damage, 100 = complete death
Outline: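 Plants grown in 10 cm pots of sandy loam mix received acetone-dissolved compounds through a moving flat-fan nozzle. Doses ranged from 15 to 1000 g ai/ha. Pre-emerge pots were seeded one day earlier, post-emerge pots 8–21 days earlier. Fourteen days on, each pot was graded 0–100 for damage.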

[2] = tested on: upland rice (Oryza sp., var. Tebonnet, RICE); experiment: Post-emerge test, crop safety; conditions: phytotoxicity rating 0-100 (0 no damage, 100 complete death), 14 days after application
Outline: (§1)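 Visual ratings on a 0-100 scale (0 no damage, 100 all plants dead) were taken at 14 days after treatment. Rates of 15-1000 g ai/ha in acetone, 187 l/ha, were sprayed onto soil one day after planting (pre-emerge) or onto 2-3 leaf plants with 0.25% v/v surfactant (post-emerge).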

[3] = tested on: field corn (Zea mays L., var. Dekalb 535, CORN); experiment: Post-emerge test, crop safety; conditions: phytotoxicity rating 0-100 (0 no damage, 100 complete death), 14 days after application
Outline: as §1

[4] = tested on: lambsquarters (Chenopodium album, CHEAL); experiment: Pre-emerge test, greenhouse herbicide activity screening; conditions: pre-emerge, rated 14 days after application, 0 = no damage, 100 = complete death
Outline: as §1

[5] = tested on: johnsongrass (Sorghum halepense, SORHA); experiment: as above; conditions: pre-emerge, rated 14 days after application, 0 = no damage, 100 = complete death
Outline: as §1

[6] = tested on: barnyardgrass (Echinochloa crus-galli, ECHCG); experiment: as above; conditions: pre-emerge, rated 14 days after application, 0 = no damage, 100 = complete death
Outline: as §1

[7] = tested on: ivyleaf morningglory (Ipomoea hederacea, IPOHE); experiment: as above; conditions: pre-emerge, rated 14 days after application, 0 = no damage, 100 = complete death
Outline: as §1

[8] = tested on: green foxtail (Setaria viridis, SETVI); experiment: as above; conditions: pre-emerge, rated 14 days after application, 0 = no damage, 100 = complete death
Outline: as §1

[9] = tested on: sicklepod (Cassia obtusifolia, CASOB); experiment: as above; conditions: pre-emerge, rated 14 days after application, 0 = no damage, 100 = complete death
Outline: as §1

[10] = tested on: velvetleaf (Abutilon theophrasti, ABUTH); experiment: as above; conditions: pre-emerge, rated 14 days after application, 0 = no damage, 100 = complete death
Outline: as §1

[11] = tested on: large crabgrass (Digitaria sanguinalis, DIGSA); experiment: as above; conditions: pre-emerge, rated 14 days after application, 0 = no damage, 100 = complete death
Outline: as §1

[12] = tested on: upland rice (Oryza sp., var. Tebonnet, RICE); experiment: Pre-emerge test, crop safety; conditions: pre-emerge, rated 14 days after application, 0 = no damage, 100 = complete death
Outline: (§2)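 Applied at 15–1000 g ai/ha from acetone in 187 l/ha spray volume. Post-emergence applications included 0.25% v/v non-ionic surfactant and reached plants sown 8–21 days before. Pre-emergence applications were incorporated by surface watering. Efficacy or crop damage was rated on a 0–100 scale after 14 days.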

[13] = tested on: field corn (Zea mays L., var. Dekalb 535, CORN); experiment: Pre-emerge test, crop safety; conditions: pre-emerge, rated 14 days after application, 0 = no damage, 100 = complete death
Outline: as §2

[14] = tested on: lambsquarters (Chenopodium album, CHEAL); experiment: Post-emerge test, greenhouse herbicide activity screening; conditions: phytotoxicity rating 0-100 (0 no damage, 100 complete death), 14 days after application
Outline: (§3)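 Each test used a mechanized track sprayer delivering 187 l/ha of acetone solution at 15–1000 g ai/ha. Post-emerge foliage at 2–3 leaves was treated with added 0.25% v/v non-ionic surfactant and bottom-watered only. Injury was assessed on day 14, where 100 means total kill.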

[15] = tested on: johnsongrass (Sorghum halepense, SORHA); experiment: as above; conditions: phytotoxicity rating 0-100 (0 no damage, 100 complete death), 14 days after application
Outline: as §3

[16] = tested on: barnyardgrass (Echinochloa crus-galli, ECHCG); experiment: as above; conditions: phytotoxicity rating 0-100 (0 no damage, 100 complete death), 14 days after application
Outline: as §3

[17] = tested on: ivyleaf morningglory (Ipomoea hederacea, IPOHE); experiment: as above; conditions: phytotoxicity rating 0-100 (0 no damage, 100 complete death), 14 days after application
Outline: as §3

[18] = tested on: green foxtail (Setaria viridis, SETVI); experiment: as above; conditions: phytotoxicity rating 0-100 (0 no damage, 100 complete death), 14 days after application
Outline: as §3

[19] = tested on: sicklepod (Cassia obtusifolia, CASOB); experiment: as above; conditions: phytotoxicity rating 0-100 (0 no damage, 100 complete death), 14 days after application
Outline: as §3

[20] = tested on: velvetleaf (Abutilon theophrasti, ABUTH); experiment: as above; conditions: phytotoxicity rating 0-100 (0 no damage, 100 complete death), 14 days after application
Outline: as §3

[21] = tested on: large crabgrass (Digitaria sanguinalis, DIGSA); experiment: as above; conditions: phytotoxicity rating 0-100 (0 no damage, 100 complete death), 14 days after application
Outline: as §3

[22] = tested on: redroot pigweed (Amaranthus retroflexus, AMARE); experiment: as above; conditions: phytotoxicity rating 0-100 (0 no damage, 100 complete death), 14 days after application
Outline: as §3

CCc1ccc(C(=O)Nc2c(OCC#N)c(Cl)cc(F)c2-n2c(=O)cc(C(F)(F)F)n(C)c2=O)cc1 [2-28]
Pre-emerge Herbicidal Activity AMARE (phytotoxicity rating, scale 0-100) ([1]; 63 g ai/ha): 100
Pre-emerge Herbicidal Activity AMARE (phytotoxicity rating, scale 0-100) ([1]; 250 g ai/ha): 100
Post-emerge Herbicidal Activity RICE (crop damage) ([2]; 63 g ai/ha): 90
Post-emerge Herbicidal Activity RICE (crop damage) ([2]; 250 g ai/ha): 90
Post-emerge Herbicidal Activity CORN (crop damage) ([3]; 63 g ai/ha): 15
Post-emerge Herbicidal Activity CORN (crop damage) ([3]; 250 g ai/ha): 25
Pre-emerge Herbicidal Activity CHEAL (phytotoxicity rating, scale 0-100) ([4]; 63 g ai/ha): 100
Pre-emerge Herbicidal Activity CHEAL (phytotoxicity rating, scale 0-100) ([4]; 250 g ai/ha): 100
Pre-emerge Herbicidal Activity SORHA (phytotoxicity rating, scale 0-100) ([5]; 63 g ai/ha): 10
Pre-emerge Herbicidal Activity SORHA (phytotoxicity rating, scale 0-100) ([5]; 250 g ai/ha): 50
Pre-emerge Herbicidal Activity ECHCG (phytotoxicity rating, scale 0-100) ([6]; 63 g ai/ha): 0
Pre-emerge Herbicidal Activity ECHCG (phytotoxicity rating, scale 0-100) ([6]; 250 g ai/ha): 20
Pre-emerge Herbicidal Activity IPOHE (phytotoxicity rating, scale 0-100) ([7]; 63 g ai/ha): 80
Pre-emerge Herbicidal Activity IPOHE (phytotoxicity rating, scale 0-100) ([7]; 250 g ai/ha): 100
Pre-emerge Herbicidal Activity SETVI (phytotoxicity rating, scale 0-100) ([8]; 63 g ai/ha): 50
Pre-emerge Herbicidal Activity SETVI (phytotoxicity rating, scale 0-100) ([8]; 250 g ai/ha): 100
Pre-emerge Herbicidal Activity CASOB (phytotoxicity rating, scale 0-100) ([9]; 63 g ai/ha): 5
Pre-emerge Herbicidal Activity CASOB (phytotoxicity rating, scale 0-100) ([9]; 250 g ai/ha): 100
Pre-emerge Herbicidal Activity ABUTH (phytotoxicity rating, scale 0-100) ([10]; 63 g ai/ha): 100
Pre-emerge Herbicidal Activity ABUTH (phytotoxicity rating, scale 0-100) ([10]; 250 g ai/ha): 100
Pre-emerge Herbicidal Activity DIGSA (phytotoxicity rating, scale 0-100) ([11]; 63 g ai/ha): 50
Pre-emerge Herbicidal Activity DIGSA (phytotoxicity rating, scale 0-100) ([11]; 250 g ai/ha): 90
Pre-emerge crop damage RICE (phytotoxicity rating, scale 0-100) ([12]; 63 g ai/ha): 60
Pre-emerge crop damage RICE (phytotoxicity rating, scale 0-100) ([12]; 250 g ai/ha): 70
Pre-emerge crop damage CORN (phytotoxicity rating, scale 0-100) ([13]; 63 g ai/ha): 0
Pre-emerge crop damage CORN (phytotoxicity rating, scale 0-100) ([13]; 250 g ai/ha): 10
Post-emerge Herbicidal Activity CHEAL ([14]; 63 g ai/ha): 60
Post-emerge Herbicidal Activity CHEAL ([14]; 250 g ai/ha): 60
Post-emerge Herbicidal Activity SORHA ([15]; 63 g ai/ha): 0
Post-emerge Herbicidal Activity SORHA ([15]; 250 g ai/ha): 0
Post-emerge Herbicidal Activity ECHCG ([16]; 63 g ai/ha): 0
Post-emerge Herbicidal Activity ECHCG ([16]; 250 g ai/ha): 0
Post-emerge Herbicidal Activity IPOHE ([17]; 63 g ai/ha): 60
Post-emerge Herbicidal Activity IPOHE ([17]; 250 g ai/ha): 50
Post-emerge Herbicidal Activity SETVI ([18]; 63 g ai/ha): 30
Post-emerge Herbicidal Activity SETVI ([18]; 250 g ai/ha): 30
Post-emerge Herbicidal Activity CASOB ([19]; 63 g ai/ha): 30
Post-emerge Herbicidal Activity CASOB ([19]; 250 g ai/ha): 20
Post-emerge Herbicidal Activity ABUTH ([20]; 63 g ai/ha): 100
Post-emerge Herbicidal Activity ABUTH ([20]; 250 g ai/ha): 100
Post-emerge Herbicidal Activity DIGSA ([21]; 63 g ai/ha): 0
Post-emerge Herbicidal Activity DIGSA ([21]; 250 g ai/ha): 0
Post-emerge Herbicidal Activity AMARE ([22]; 63 g ai/ha): 100
Post-emerge Herbicidal Activity AMARE ([22]; 250 g ai/ha): 100
